As a reminder, the Papp A→B is the apparent permeability from the apical to the basolateral side of a cell layer. The pIC50 is the negative decadic logarithm of the IC50, by convention in mol/L. Broadly, the inhibition is how much of the control response was suppressed. A lower inhibition goes with a response near the control.

pIC50: −log10 of the molar value. Some results are limits rather than exact numbers.

T1 sequence (P56817 whole entry): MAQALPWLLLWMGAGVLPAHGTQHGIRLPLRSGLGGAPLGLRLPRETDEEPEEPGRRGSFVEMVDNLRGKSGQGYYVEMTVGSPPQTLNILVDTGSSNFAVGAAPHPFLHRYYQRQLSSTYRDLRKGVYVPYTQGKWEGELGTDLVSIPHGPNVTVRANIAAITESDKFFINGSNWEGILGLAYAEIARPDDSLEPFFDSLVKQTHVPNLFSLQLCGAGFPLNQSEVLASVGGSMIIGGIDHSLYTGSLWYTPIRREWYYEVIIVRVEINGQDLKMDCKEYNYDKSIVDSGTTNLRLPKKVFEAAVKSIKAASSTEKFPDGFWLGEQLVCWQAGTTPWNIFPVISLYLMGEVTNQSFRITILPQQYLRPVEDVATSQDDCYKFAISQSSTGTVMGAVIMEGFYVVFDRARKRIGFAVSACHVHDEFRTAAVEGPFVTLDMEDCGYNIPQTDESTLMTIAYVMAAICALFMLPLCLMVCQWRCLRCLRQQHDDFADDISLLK

System in the first data set: not listed separately
Briefly: Permeability from apical to basolateral side in MDCK cells at 50 uM. In kind it is ADME, cell-based, Canis lupus familiaris. The note with it: dog.
`Cc1ccc2[nH]c(N[C@H]3CNC[C@@H]3OC(=O)c3ccc(-c4ccccc4)cc3)nc2c1`: the Papp A→B at 50 µM amounted to 4.8 ×10⁻⁶ cm/s.

`CC(C)(C)OC(=O)N1C[C@H](Nc2nc3cc(F)ccc3[nH]2)[C@@H](OC(=O)c2ccc(-c3ccccc3)cc2)C1` gave a Papp A→B at 50 µM of 1.5 ×10⁻⁶ cm/s.

For `CC(C)c1ccc(C(=O)O[C@H]2CN(C(=O)OC(C)(C)C)C[C@@H]2Nc2nc3cc(F)ccc3[nH]2)cc1`, the Papp A→B at 50 µM was 2.3 ×10⁻⁶ cm/s.

`CC(C)(C)OC(=O)N1C[C@H](Nc2nc3cc(F)ccc3[nH]2)[C@@H](OCc2ccc(-c3ccccc3)cc2)C1` registered a Papp A→B at 50 µM of 13 ×10⁻⁶ cm/s.

In turn, `Cc1ccc2[nH]c(N[C@H]3CN(C(=O)c4ccccc4)C[C@@H]3OC(=O)c3ccc(-c4ccccc4)cc3)nc2c1` displayed a Papp A→B at 50 µM of 5.2 ×10⁻⁶ cm/s.

Another data set has as its target T1, Beta-secretase 1 (Homo sapiens, UniProt P56817). Briefly: Inhibition of BACE1 in […] PC12 cells expressing APP Sweden mutant. In kind it is cell-based, PC-12.
Conditions: not given
The molecule `Cc1ccc2[nH]c(N[C@H]3CNC[C@@H]3OC(=O)c3ccc(-c4ccccc4)cc3)nc2c1` had a pIC50 of 5.49.

The molecule `CC(C)(C)OC(=O)N1C[C@H](Nc2nc3cc(F)ccc3[nH]2)[C@@H](OCc2ccc(-c3ccccc3)cc2)C1` had a pIC50 of 5.77.

Another data set addresses T1, Beta-secretase 1. Nature of the data set: Inhibition of BACE1 (unknown origin) by FRET assay.
Conditions: not given
`CC(C)(C)OC(=O)N1C[C@H](Nc2nc3cc(Cl)ccc3[nH]2)[C@@H](OC(=O)c2cccc(Oc3ccccc3)c2)C1` gave a negative-log IC50 (pIC50) of 6.44.

Molecule `Cc1ccc2[nH]c(N[C@H]3CN(C(=O)OC(C)(C)C)C[C@@H]3OC(=O)c3cccc(-c4ccc(F)cc4)c3)nc2c1` gave a pIC50 of 6.72.

Molecule `COc1ccc2[nH]c(N[C@H]3CN(C(=O)OC(C)(C)C)C[C@@H]3OC(=O)c3ccc(-c4ccccc4)cc3)nc2c1` gave a pIC50 of 6.35. Compared with the last molecule, the pIC50 is 0.37 log units lower.

Consider `CC(=O)N1C[C@H](Nc2nc3cc(C)ccc3[nH]2)[C@@H](OC(=O)c2ccc(-c3ccccc3)cc2)C1`, for which the negative-log IC50 (pIC50) was 6.14.

`CC(C)(C)OC(=O)N1C[C@H](Nc2nc3cc(Cl)ccc3[nH]2)[C@@H](OC(=O)c2ccc(-c3ccccc3)cc2)C1` had a pIC50 of 6.36.

On to `CC(C)c1ccc(CO[C@H]2CN(C(=O)OC(C)(C)C)C[C@@H]2Nc2nc3cc(F)ccc3[nH]2)cc1`, for which the pIC50 was 6.14.

In turn, `CC(C)c1ccc(CO[C@H]2CN(CC(N)=O)C[C@@H]2Nc2nc3cc(F)ccc3[nH]2)cc1` gave a pIC50 of under 5.30.

Molecule `Cc1ccc2[nH]c(N[C@H]3CNC[C@@H]3OC(=O)c3ccc(-c4ccccc4)cc3)nc2c1` had a pIC50 of 6.18.

Molecule `CC(C)c1ccc(CO[C@H]2CNC[C@@H]2Nc2nc3cc(F)ccc3[nH]2)cc1` gave a pIC50 of under 5.30.

The molecule `CC(C)c1ccc(CO[C@H]2CN(S(=O)(=O)c3ccccc3)C[C@@H]2Nc2nc3cc(F)ccc3[nH]2)cc1` had a pIC50 of 6.32.

`CC(C)c1ccc(CO[C@H]2CN(CCO)C[C@@H]2Nc2nc3cc(F)ccc3[nH]2)cc1` gave a negative-log IC50 (pIC50) of under 5.30.

For `CCCS(=O)(=O)N1C[C@H](Nc2nc3cc(F)ccc3[nH]2)[C@@H](OC(=O)c2ccc(N(C)C)cc2)C1`, the pIC50 is 5.50.

`CN(C)c1ccc(C(=O)O[C@H]2CN(C(=O)OC(C)(C)C)C[C@@H]2Nc2nc3cc(F)ccc3[nH]2)cc1` showed a negative-log IC50 (pIC50) of 5.87.

The molecule `CC(C)(C)OC(=O)N1C[C@H](Nc2nc3cc(F)ccc3[nH]2)[C@@H](OC(=O)c2ccc(-c3ccccc3)cc2)C1` showed a pIC50 of 7.30.

In turn, `CCCS(=O)(=O)N1C[C@H](Nc2nc3cc(F)ccc3[nH]2)[C@@H](OC(=O)c2ccc(C(C)C)cc2)C1` showed a negative logarithm of the IC50 (pIC50) of 6.17.

Take `CC(C)c1ccc(C(=O)O[C@H]2CN(C(=O)OC(C)(C)C)C[C@@H]2Nc2nc3cc(F)ccc3[nH]2)cc1`: the negative-log IC50 (pIC50) is 7.15.

`CC(C)(C)OC(=O)N1C[C@H](Nc2nc3cc(F)ccc3[nH]2)[C@@H](OCc2ccc(-c3ccccc3)cc2)C1` showed a pIC50 of 6.92. This pIC50 is 0.23 log units lower than that of the molecule before.

Consider `Cc1ccc2[nH]c(N[C@H]3CN(C(=O)c4ccccc4)C[C@@H]3OC(=O)c3ccc(-c4ccccc4)cc3)nc2c1`, for which the pIC50 is 6.41. Compared with the last molecule, the pIC50 is 0.51 log units lower.

Consider `Cc1ccc2[nH]c(N[C@H]3CN(C(=O)OC(C)(C)C)C[C@@H]3OC(=O)c3ccc(-c4ccccc4)cc3)nc2c1`, for which the pIC50 was 6.68.

The molecule `CC(C)c1ccc(C(=O)O[C@H]2CN(S(=O)(=O)c3ccccc3)C[C@@H]2Nc2nc3cc(F)ccc3[nH]2)cc1` showed a pIC50 of 6.14. This pIC50 is 0.54 log units lower than that of the molecule before.

`COC(=O)CN1C[C@H](Nc2nc3cc(C)ccc3[nH]2)[C@@H](OC(=O)c2ccc(-c3ccccc3)cc2)C1`: the pIC50 was 6.24.

As for `CCCS(=O)(=O)N1C[C@H](Nc2nc3cc(F)ccc3[nH]2)[C@@H](OCc2ccc(C(C)C)cc2)C1`, the pIC50 was 6.19.

Another data set deals with T1, Beta-secretase 1. Nature of the data set: Inhibition of BACE1 in […] PC12 cells expressing APP Sweden mutant at 10 uM. In kind it is cell-based. The note with it: PC-12.
As to `CC(C)(C)OC(=O)N1C[C@H](Nc2nc3cc(F)ccc3[nH]2)[C@@H](OC(=O)c2ccc(-c3ccccc3)cc2)C1`, the inhibition was found to be 40%.

On to `CC(C)c1ccc(C(=O)O[C@H]2CN(C(=O)OC(C)(C)C)C[C@@H]2Nc2nc3cc(F)ccc3[nH]2)cc1`, for which the inhibition turned out to be 34%.

`Cc1ccc2[nH]c(N[C@H]3CN(C(=O)c4ccccc4)C[C@@H]3OC(=O)c3ccc(-c4ccccc4)cc3)nc2c1` displayed an inhibition of 52%.

The target of another data set is T2, Cathepsin D (Homo sapiens, UniProt P07339). Nature of the data set: Inhibition of cathepsin D (unknown origin) at 10 uM.
T2 sequence (P07339 65-162 limits assumed): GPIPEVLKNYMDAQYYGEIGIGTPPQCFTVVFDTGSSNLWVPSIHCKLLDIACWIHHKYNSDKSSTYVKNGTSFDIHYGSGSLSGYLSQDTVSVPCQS
T2 sequence (P07339 169-412 limits assumed): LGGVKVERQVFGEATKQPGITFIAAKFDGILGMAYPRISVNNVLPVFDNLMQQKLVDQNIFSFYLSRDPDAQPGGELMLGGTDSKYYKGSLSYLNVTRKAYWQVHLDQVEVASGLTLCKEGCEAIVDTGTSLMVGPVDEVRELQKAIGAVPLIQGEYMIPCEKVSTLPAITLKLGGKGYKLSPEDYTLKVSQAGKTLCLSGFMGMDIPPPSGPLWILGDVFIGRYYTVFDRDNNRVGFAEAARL
Conditions: not given
In turn, `Cc1ccc2[nH]c(N[C@H]3CNC[C@@H]3OC(=O)c3ccc(-c4ccccc4)cc3)nc2c1` yielded an inhibition of 4.5%.

As to `CC(C)(C)OC(=O)N1C[C@H](Nc2nc3cc(F)ccc3[nH]2)[C@@H](OC(=O)c2ccc(-c3ccccc3)cc2)C1`, the inhibition was determined as 1.1%.

The molecule `CC(C)c1ccc(C(=O)O[C@H]2CN(C(=O)OC(C)(C)C)C[C@@H]2Nc2nc3cc(F)ccc3[nH]2)cc1` returned an inhibition of 1.4%.

Take `CC(C)(C)OC(=O)N1C[C@H](Nc2nc3cc(F)ccc3[nH]2)[C@@H](OCc2ccc(-c3ccccc3)cc2)C1`: the inhibition was 5.7%.

On to `Cc1ccc2[nH]c(N[C@H]3CN(C(=O)c4ccccc4)C[C@@H]3OC(=O)c3ccc(-c4ccccc4)cc3)nc2c1`, for which the inhibition came out at 4.2%.

Another data set has as its target T1, Beta-secretase 1. Nature of the data set: Inhibition of BACE1 (unknown origin).
Conditions: not given
For `COc1ccc(N2CCN([C@@H]3CN(C(=O)Nc4cc(Cl)cc(Cl)c4)CC[C@H]3OC(=O)c3ccc(Oc4ccccc4)cc3)CC2)cc1`, the pIC50 was 6.22.

The target of a further data set is T3, Beta-secretase 2 (Homo sapiens, UniProt Q9Y5Z0).
T3 sequence (Q9Y5Z0 whole entry): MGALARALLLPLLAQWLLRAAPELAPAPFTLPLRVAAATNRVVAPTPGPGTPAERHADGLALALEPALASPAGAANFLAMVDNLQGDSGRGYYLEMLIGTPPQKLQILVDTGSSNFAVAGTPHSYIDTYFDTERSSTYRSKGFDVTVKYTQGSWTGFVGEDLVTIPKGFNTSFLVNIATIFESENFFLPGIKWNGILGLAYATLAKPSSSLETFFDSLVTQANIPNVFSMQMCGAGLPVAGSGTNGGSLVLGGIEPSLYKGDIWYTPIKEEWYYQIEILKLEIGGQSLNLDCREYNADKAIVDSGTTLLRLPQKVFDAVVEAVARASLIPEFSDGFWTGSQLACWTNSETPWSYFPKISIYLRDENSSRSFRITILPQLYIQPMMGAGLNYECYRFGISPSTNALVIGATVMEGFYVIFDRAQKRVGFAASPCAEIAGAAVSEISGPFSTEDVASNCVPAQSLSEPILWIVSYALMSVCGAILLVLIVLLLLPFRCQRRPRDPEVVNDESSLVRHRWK
Nature of the data set: Inhibition of BACE2 (unknown origin).
Conditions: not given
Molecule `Cc1ccc2[nH]c(N[C@H]3CNC[C@@H]3OC(=O)c3ccc(-c4ccccc4)cc3)nc2c1` gave a pIC50 of 5.37.

`CC(C)(C)OC(=O)N1C[C@H](Nc2nc3cc(F)ccc3[nH]2)[C@@H](OC(=O)c2ccc(-c3ccccc3)cc2)C1` showed a pIC50 of 5.00.

Molecule `CC(C)c1ccc(C(=O)O[C@H]2CN(C(=O)OC(C)(C)C)C[C@@H]2Nc2nc3cc(F)ccc3[nH]2)cc1` gave a pIC50 of 5.36.

As to `CC(C)(C)OC(=O)N1C[C@H](Nc2nc3cc(F)ccc3[nH]2)[C@@H](OCc2ccc(-c3ccccc3)cc2)C1`, the pIC50 is 5.05.

For `Cc1ccc2[nH]c(N[C@H]3CN(C(=O)c4ccccc4)C[C@@H]3OC(=O)c3ccc(-c4ccccc4)cc3)nc2c1`, the pIC50 is 5.24.

For another data set, the target named is T2, Cathepsin D. Nature of the data set: Inhibition of cathepsin D (unknown origin).
Conditions: not given
For `Cc1ccc2[nH]c(N[C@H]3CNC[C@@H]3OC(=O)c3ccc(-c4ccccc4)cc3)nc2c1`, the pIC50 is under 5.00.

`CC(C)(C)OC(=O)N1C[C@H](Nc2nc3cc(F)ccc3[nH]2)[C@@H](OC(=O)c2ccc(-c3ccccc3)cc2)C1` had a pIC50 of under 5.00.

In the case of `CC(C)c1ccc(C(=O)O[C@H]2CN(C(=O)OC(C)(C)C)C[C@@H]2Nc2nc3cc(F)ccc3[nH]2)cc1`, the pIC50 is under 5.00.

Take `CC(C)(C)OC(=O)N1C[C@H](Nc2nc3cc(F)ccc3[nH]2)[C@@H](OCc2ccc(-c3ccccc3)cc2)C1`: the negative-log IC50 (pIC50) is under 5.00.

`Cc1ccc2[nH]c(N[C@H]3CN(C(=O)c4ccccc4)C[C@@H]3OC(=O)c3ccc(-c4ccccc4)cc3)nc2c1` had a pIC50 of under 5.00.

For the origin of these results see ChEMBL document CHEMBL3745702, “Synthesis of (3S,4S)-4-aminopyrrolidine-3-ol derivatives and biological evaluation for their BACE1 inhibitory activities” (Bioorg Med Chem Lett, 2016).
